Here are results for 25 compounds from PubChem BioAssay (NCI).

Common to all, as to assay: inhibition of tumour cell growth, NCI panel, 48 h
Test [1] deals with HT29 colon.
In test [2] the test system is K-562 leukemia.
Test [3] concerns LOX IMVI melanoma.
Test [4] deals with OVCAR-4 ovarian.
In test [5] the test system is OVCAR-8 ovarian.
Test [6] relates to SK-MEL-28 melanoma.
The subject of test [7] is SW-620 colon.
For test [8], the system named is TK-10 renal.
Test [9] deals with U251 CNS.
The test system of test [10] is EKVX NSCLC.
The subject of test [11] is MDA-MB-435.
For test [12], the system named is NCI/ADR-RES ovarian.

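Tested at 5 concentrations; 48 h exposure; 96-well plates; endpoints linearly interpolated, else capped at highest concentration. The concentration for full growth arrest is given as TGI.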

`CC(=O)NNc1nc(C)c(C(/C=C/c2ccc(Cl)cc2)=N\N=C(N)N)s1`: the TGI in [1], in test [2], in [3], in test [4], in test [5] and in test [6] was > 100 µM throughout. For the same compound, the TGI in test [7], in test [8] and in [9] was > 100 µM in each case.

Consider `Cc1n[nH]c(=O)n1Nc1ccccc1`, for which the TGI in test [10], in [1], in test [2], in [3], in test [11] and in test [12] was > 100 µM in each case. Also, the TGI in test [4], in [5], in test [6], in test [7] and in test [9] was > 100 µM each time.

On to `COc1ccc2nc3c(C)cc4ccccc4n3c2c1`, for which the TGI in test [10], in test [1], in test [2], in test [11], in [12] and in [5] was > 100 µM each time. The TGI in [6], in test [7], in [8] and in [9] was > 100 µM throughout.

`O=C(CSc1nnc(Cc2ccccc2)o1)Nc1ccc(Cl)cc1[N+](=O)[O-]`: the TGI is 40.1 µM in [10]; 49.2 µM in [1]; 98.7 µM in test [2]; 26.3 µM in [3]; 33.9 µM in [4]; > 100 µM in test [5]. The TGI in [6] was found to be 29 µM; in [7], 53.8 µM; in [8], 30.8 µM; in [9], 34.8 µM.

Consider `C=C1C2C[C@@H]3O[C@H]4C[C@H]5O[C@@]6(C[C@@H]7O[C@]8(C[C@H](C)[C@@H]9O[C@@H]%10CC(C=O)O[C@@H]%10C[C@@H]9O8)C[C@H](C)[C@@H]7O6)C[C@H]5O[C@H]4[C@H](C)[C@H]3OC(=O)C[C@H]3CC[C@@H]4OC5[C@H]6O[C@]7(CC[C@H]8CC(=C)[C@H](CC[C@@H](C[C@H]1C)O2)O8)CC6O[C@@H]5[C@@H](O7)[C@H]4O3` (stereo not given in full), for which the TGI was > 1 µM in [10]; > 1 µM in test [2]; < 0.0001 µM in [11]; > 1 µM in [4]; > 1 µM in test [7]; > 1 µM in test [8]. Besides, in test [9], the TGI is > 1 µM.

As for `O=C1C[C@@H]2[C@@H](CCC23CCCC3)N1`, the TGI in test [10], in test [1], in [2], in test [3], in test [4] and in test [5] was > 100 µM in each case. The TGI in [6], in test [7], in test [8] and in test [9] was > 100 µM in each case.

Regarding `O=C1N=CN=C2C=CC(Cl)=C(I)C12` (stereo not given), the TGI in [10], in test [1], in test [2], in test [3], in [4] and in test [5] was > 100 µM each time. In addition, the TGI in [6], in [7], in [8] and in test [9] was > 100 µM throughout.

For the compound `O=[N+]([O-])c1cnc(N(CCO)CCO)s1`, the TGI in test [10], in [1], in test [2], in test [3], in [11] and in test [12] was > 100 µM each time. Also, the TGI in [4], in [5], in [6], in test [7] and in [9] was > 100 µM throughout.

In the case of `CC(C)COC(=O)c1ccc(N=Cc2ccc(C=Nc3ccc(C(=O)OCC(C)C)cc3)cc2)cc1`, the TGI in test [1], in [2], in test [3], in test [4], in test [5] and in [6] was > 100 µM in each case. Besides, the TGI in [7], in test [8] and in [9] was > 100 µM in each case.

`Cc1ccc(C(=O)O)c(/C=C2\Cc3cc(C)cc(C)c3C2=O)c1`: the TGI in test [10], in [1], in test [2], in [3], in [5] and in [6] was > 100 µM each time. Further, the TGI in [7], in [8] and in [9] was > 100 µM each time.

With `C=C[C@]1(C)CC(=O)C(C(C)C=O)[C@]12C(=O)Oc1cccc(C)c1C2=O` (stereo not given in full), the TGI is 40.2 µM in [10]; 27.6 µM in [1]; 53.2 µM in [2]; 27.5 µM in test [3]; 29.3 µM in test [11]; 35.5 µM in [4]. For the same compound, the TGI in [5] was found to be 31.5 µM; in [6] it was 29.2 µM; in test [7], 25.2 µM; in test [8], 28.2 µM; in test [9] it was 28.3 µM.

For the compound `CN1CN(c2ccccc2)C2(CCN(C3Nc4ccccc4O3)CC2)C1=O` (stereo not given), the TGI in test [1] is 33 µM; in test [2], > 100 µM; in test [3], 26.8 µM; in test [11] it was 42.1 µM; in test [12], 56.1 µM; in test [5] it was 82.1 µM. Also, the TGI in test [6] is 47.2 µM; in test [7] it was > 100 µM; in test [8], 46.3 µM; in test [9], 33.3 µM.

`CCOc1ccc(N2C(=O)NC3(c4ccccc4)N(C)C(=O)N(C)C23c2ccccc2)cc1` (stereo not given): the TGI in [10], in test [1], in test [2], in test [3], in test [11] and in test [12] was > 100 µM throughout. The TGI in test [5], in test [6], in test [7] and in test [9] was > 100 µM each time.

With `Cc1cc(O)c2c(c1)C(C1OC(CO)C(O)C(O)C1O)c1cc(O)cc(O)c1C2=O` (stereo not given), the TGI in [10], in [1], in [2], in test [11], in test [12] and in test [4] was > 100 µM in each case. In addition, the TGI in [5], in test [6], in test [7], in [8] and in test [9] was > 100 µM each time.

On to `COc1ccc(C[n+]2cccc(O)c2)cc1`, for which the TGI in [10], in test [1], in test [2], in test [11], in test [12] and in test [5] was > 100 µM throughout. In addition, the TGI in test [6], in [7], in test [8] and in test [9] was > 100 µM each time.

Take `Cc1ccc(N=NN(C)C(C)C(O)Cc2ccccc2)cc1` (stereo not given): the TGI in test [10], in test [1], in test [2], in test [11], in test [12] and in [4] was > 100 µM throughout. In addition, the TGI in test [5], in test [6], in [7], in test [8] and in test [9] was > 100 µM each time.

As to `COC(=O)CN=C1NC(=S)N(Cc2ccc(OC)cc2)C12CCCC2`, the TGI in test [10], in test [1], in test [2], in test [11], in test [12] and in test [4] was > 100 µM in each case. For the same compound, the TGI in [5], in [6], in [7] and in test [9] was > 100 µM throughout.

Regarding `CCOC(=O)c1cc(-c2ccc([N+](=O)[O-])cc2)c([N+](=O)[O-])[nH]1`, the TGI was > 10 µM in test [10]; > 10 µM in [1]; > 10 µM in [2]; 9.3 µM in test [11]; > 10 µM in test [12]; > 10 µM in [4]. For the same compound, the TGI in test [5], in test [8] and in test [9] was > 10 µM each time.

For `O=c1oc2ccc3ccccc3c2cc1-c1nc(-c2ccc([N+](=O)[O-])cc2)n[nH]1`, the TGI in test [10], in [1], in test [2], in test [3], in [11] and in test [12] was > 100 µM each time. Besides, the TGI in [4] is > 100 µM; in test [5], 94.6 µM; in test [6] it was > 100 µM; in test [7], > 100 µM; in test [9] it was > 100 µM.

In the case of `CC1OC(OC2C(OC(=O)[C@]34CCC(C)(C)CC3C3=CCC5[C@@]6(C)C[C@H](O)[C@H](OC7OC(COC8OC(CO)C(O)C(O)C8O)C(O)C(O)C7O)[C@@](C)(C(=O)O)C6CC[C@@]5(C)C3(C)CC4)OCC(O)C2O)C(O)C(O)C1OC1OCC(O)C(O)C1O` (stereo not given in full), the TGI in [10], in test [1], in test [2], in test [3], in [5] and in [6] was > 100 µM in each case. Also, the TGI in test [7], in [8] and in test [9] was > 100 µM in each case.

`Fc1cc(C2=Nn3c(CNc4ccc(Cl)cc4)nnc3S/C2=C\c2ccc(-c3ccc(Cl)cc3)o2)c(Cl)cc1Cl`: the TGI in test [10] is 67.8 µM; in [1] it was > 100 µM; in [2] it was > 100 µM; in test [3], > 100 µM; in test [11], > 100 µM; in test [12], 27.5 µM. Further, the TGI in test [5] was > 100 µM; in test [6], > 100 µM; in [7], > 100 µM; in test [8] it was > 100 µM; in test [9] it was 57.6 µM.

Take `CSCCC(NC(=O)Cc1ccc(C(=O)c2ccccc2)cc1)C(=O)N1CCN(CCCCN2c3ccccc3Sc3cc(N=[N+]=[N-])ccc32)CC1` (stereo not given): the TGI in test [10], in test [1], in [2], in test [3], in test [4] and in [8] was > 100 µM in each case. In test [9], the TGI was > 100 µM.

With `Cc1cc(N(CCC#N)CCC#N)ccc1/C=C1N=C(/C=C/c2ccccc2)N(c2ccc(S(N)(=O)=O)cc2)C\1=O`, the TGI in test [1], in test [2], in test [3], in test [4], in test [5] and in [6] was > 100 µM in each case. The TGI in test [7], in test [8] and in test [9] was > 100 µM throughout.

On to `Fc1ccc(Oc2nc3ccccc3nc2-c2ccccc2)cc1`, for which the TGI in test [10], in test [1], in [2], in test [3], in test [11] and in test [4] was > 100 µM in each case. Further, the TGI in test [6], in [7], in test [8] and in test [9] was > 100 µM each time.

Regarding `COc1ccc(-c2[nH]c(-c3ccc(OC)cc3)c(-c3ccccn3)c2-c2ccccn2)cc1`, the TGI in test [10] is > 100 µM; in test [1] it was 49.3 µM; in test [2] it was 84.5 µM; in [3], 65.5 µM; in test [11], > 100 µM; in test [12], > 100 µM. The TGI in test [5], in [7], in test [8] and in test [9] was > 100 µM in each case.
